Measured values published in US10487093B2, “Heterocyclic compounds, in particular 2-oxo-4,4,5,5,6,6,7,7-octahydrobenzoxazole derivatives, and their use as antibacterial compounds” (priority 2016, dated 2019).
Values after ≈ are worked out from the molar mass of the structure shown.

Experiments:
[1] = test system: Acinetobacter baumannii NCTC 13420; experiment: MIC, broth microdilution (CLSI) versus planktonic bacteria; type: cell-based; settings: NCTC13420; Acinetobacter baumannii NCTC 13420; 16-20 h; mode of three independent experiments; read-out: MIC, Ab NCTC 13420
[2] = test system: Acinetobacter baumannii ATCC 19606; experiment: as above; type: cell-based; settings: ATCC19606; Acinetobacter baumannii ATCC 19606; 16-20 h; mode of three independent experiments; read-out: MIC, Ab ATCC 19606
[3] = test system: Enterobacter cloacae NCTC 13406; experiment: as above; type: cell-based; settings: NCTC13406; Enterobacter cloacae NCTC 13406; 16-20 h; mode of three independent experiments; read-out: MIC, Ecl NCTC 13406
[4] = test system: Escherichia coli ATCC 25922; experiment: as above; type: cell-based; settings: ATCC25922; Escherichia coli ATCC 25922; 16-20 h; mode of three independent experiments; read-out: MIC, Ec ATCC 25922
E. coli ATCC BAA-2452 = experiment: as above; type: cell-based; settings: Escherichia coli ATCC BAA-2452; 16-20 h; mode of three independent experiments; read-out: MIC, Ec ATCC BAA 2452
E. coli NCTC 13476 = experiment: as above; type: cell-based; settings: NCTC13476; Escherichia coli NCTC 13476; 16-20 h; mode of three independent experiments; read-out: MIC, Ec NCTC 13476
E. coli MG1655 = experiment: as above; type: cell-based, Escherichia coli; settings: Escherichia coli, MG1655, read-out: MIC, Ec MG1655 WT
[5] = test system: Haemophilus influenzae ATCC 49247; experiment: as above; type: cell-based; settings: ATCC49247; Haemophilus influenzae ATCC 49247; 16-20 h; mode of three independent experiments; read-out: MIC, Hi ATCC 49247
[6] = test system: Pseudomonas aeruginosa ATCC 27853; experiment: as above; type: cell-based; settings: ATCC27853; Pseudomonas aeruginosa ATCC 27853; 16-20 h; mode of three independent experiments; read-out: MIC, Pa ATCC 27853
[7] = test system: Staphylococcus aureus ATCC 29213; experiment: as above; type: cell-based; settings: ATCC29213; Staphylococcus aureus ATCC 29213; 16-20 h; mode of three independent experiments; read-out: MIC, Sa ATCC 29213
[8] = test system: Streptococcus pneumoniae ATCC 49619; experiment: as above; type: cell-based; settings: ATCC49619; Streptococcus pneumoniae ATCC 49619; 16-20 h; mode of three independent experiments; read-out: MIC, Sp ATCC 49619
E. coli MG1655 S83L = type: cell-based, Escherichia coli; settings: compared to the isogenic parent strain E. coli MG1655; S83L mutation on DNA gyrase subunit GyrA
E. coli MG1655 D87G = type: cell-based, Escherichia coli; settings: compared to the isogenic parent strain E. coli MG1655; D87G mutation on DNA gyrase subunit GyrA
[9] = test system: human hepatic cell line (HepG2 ATCC HB-8065); experiment: Human cell viability assay (CellTiter-Glo); settings: Homo sapiens, HepG2, 24 h, read-out: IC50 (μg/mL) HepG2

Row | SMILES | MIC [1] | MIC [2] | MIC [3] | MIC [4] | MIC (E. coli ATCC BAA-2452) | MIC (E. coli NCTC 13476) | MIC (E. coli MG1655) | MIC [5] | MIC [6] | MIC [7] | MIC [8] | Fold increase in MIC, E. coli MG1655 S83L (E. coli MG1655 S83L) | Fold increase in MIC, E. coli MG1655 D87G (E. coli MG1655 D87G) | IC50 [9]
1 | O=C1COc2ccc(N3C(=O)O[C@@H]4C[C@@H](NCCn5c(=O)cnc6cc(F)c(F)cc65)CC[C@@H]43)nc2N1 [Compound 22, 1-(2-{[(3aS,6S,7aR)-2-oxo-3-{3-oxo-2H,3H,4H-pyrido[3,2-b][1,4]oxazin-6-yl}-octahydro-1,3-benzoxazol-6-yl]amino}ethyl)-6,7-difluoro-1,2-dihydroquinoxalin-2-one] | < 1 µg/mL | < 1 µg/mL | < 1 µg/mL | < 1 µg/mL | < 1 µg/mL | < 1 µg/mL | < 1 µg/mL | < 1 µg/mL | 1 to 10 µg/mL (≈ 1.95 to 19.5 µM) | < 1 µg/mL | < 1 µg/mL | 2 fold | 2 fold | –
2 | NCCOc1ccc2ccc(=O)n(CCN[C@@H]3CC[C@@H]4[C@@H](C3)OC(=O)N4c3ccc4c(n3)NC(=O)CO4)c2c1 [Compound 23, 1-(2-{[(3aR,6R,7aR)-2-oxo-3-{3-oxo-2H,3H,4H-pyrido[3,2-b][1,4]oxazin-6-yl}-octahydro-1,3-benzoxazol-6-yl]amino}ethyl)-7-(2-aminoethoxy)-1,2-dihydroquinolin-2-one] | 10 to 100 µg/mL (≈ 18.7 to 187 µM) | – | > 100 µg/mL | < 1 µg/mL | 1 to 10 µg/mL (≈ 1.87 to 18.7 µM) | 10 to 100 µg/mL (≈ 18.7 to 187 µM) | 1 to 10 µg/mL (≈ 1.87 to 18.7 µM) | > 100 µg/mL | 1 to 10 µg/mL (≈ 1.87 to 18.7 µM) | < 1 µg/mL | 1 to 10 µg/mL (≈ 1.87 to 18.7 µM) | 0.5 fold | 0.5 fold | > 100 µg/mL
3 | O=C1COc2cnc(N3C(=O)O[C@@H]4C[C@H](NCCn5c(=O)cnc6cc(F)c(F)cc65)CC[C@H]43)nc2N1 [Compound 38, 1-(2-{[(3aR,6R,7aR)-2-oxo-3-{7-oxo-6H,7H,8H-pyrimido[5,4-b][1,4]oxazin-2-yl}-octahydro-1,3-benzoxazol-6-yl]amino}ethyl)-6,7-difluoro-1,2-dihydroquinoxalin-2-one] | 1 to 10 µg/mL (≈ 1.95 to 19.5 µM) | 1 to 10 µg/mL (≈ 1.95 to 19.5 µM) | < 1 µg/mL | < 1 µg/mL | 1 to 10 µg/mL (≈ 1.95 to 19.5 µM) | 1 to 10 µg/mL (≈ 1.95 to 19.5 µM) | < 1 µg/mL | < 1 µg/mL | 1 to 10 µg/mL (≈ 1.95 to 19.5 µM) | < 1 µg/mL | < 1 µg/mL | 2 fold | – | 10 to 100 µg/mL (≈ 19.5 to 195 µM)
4 | N#Cc1cccc(-c2cccc(CN[C@H]3CC[C@H]4[C@H](C3)OC(=O)N4c3ccc4c(n3)NC(=O)CO4)c2)n1 [Compound 57, 6-[3-({[(3aS,6S,7aS)-2-oxo-3-{3-oxo-2H,3H,4H-pyrido[3,2-b][1,4]oxazin-6-yl}-octahydro-1,3-benzoxazol-6-yl]amino}methyl)phenyl]pyridine-2-carbonitrile] | < 1 µg/mL | < 1 µg/mL | 1 to 10 µg/mL (≈ 2.01 to 20.1 µM) | < 1 µg/mL | 1 to 10 µg/mL (≈ 2.01 to 20.1 µM) | 1 to 10 µg/mL (≈ 2.01 to 20.1 µM) | < 1 µg/mL | < 1 µg/mL | – | < 1 µg/mL | < 1 µg/mL | 1 fold | 1 fold | –
5 | COc1cc2c(ccc(=O)n2CCN[C@H]2CC[C@H]3[C@H](C2)OC(=O)N3c2ccc3c(n2)NC(=O)CO3)cn1 [Compound 62, 1-(2-{[(3aS,6S,7aS)-2-oxo-3-{3-oxo-2H,3H,4H-pyrido[3,2-b][1,4]oxazin-6-yl}-octahydro-1,3-benzoxazol-6-yl]amino}ethyl)-7-methoxy-1,2-dihydro-1,6-naphthyridin-2-one] | < 1 µg/mL | 1 to 10 µg/mL (≈ 1.97 to 19.7 µM) | – | < 1 µg/mL | 1 to 10 µg/mL (≈ 1.97 to 19.7 µM) | 1 to 10 µg/mL (≈ 1.97 to 19.7 µM) | 1 to 10 µg/mL (≈ 1.97 to 19.7 µM) | 1 to 10 µg/mL (≈ 1.97 to 19.7 µM) | 10 to 100 µg/mL (≈ 19.7 to 197 µM) | < 1 µg/mL | < 1 µg/mL | 1 fold | 0.5 fold | –
6 | O=C1COc2ccc(N3C(=O)O[C@@H]4C[C@H](NCCn5c(=O)cnc6cc(F)c(F)cc65)CC[C@H]43)nc2N1 [Compound 70, 1-(2-{[(3aR,6R,7aR)-2-oxo-3-{3-oxo-2H,3H,4H-pyrido[3,2-b][1,4]oxazin-6-yl}-octahydro-1,3-benzoxazol-6-yl]amino}ethyl)-6,7-difluoro-1,2-dihydroquinoxalin-2-one] | < 1 µg/mL | – | < 1 µg/mL | < 1 µg/mL | < 1 µg/mL | < 1 µg/mL | < 1 µg/mL | < 1 µg/mL | < 1 µg/mL | < 1 µg/mL | < 1 µg/mL | 2 fold | 4 fold | 10 to 100 µg/mL (≈ 19.5 to 195 µM)
7 | C=CCOc1ccc2ccc(=O)n(CCN[C@H]3CC[C@H]4[C@H](C3)OC(=O)N4c3ccc4c(n3)NC(=O)CO4)c2c1 [Compound 89, 1-(2-{[(3aS,6S,7aS)-2-oxo-3-{3-oxo-2H,3H,4H-pyrido[3,2-b][1,4]oxazin-6-yl}-octahydro-1,3-benzoxazol-6-yl]amino}ethyl)-7-(prop-2-en-1-yloxy)-1,2-dihydroquinolin-2-one] | < 1 µg/mL | < 1 µg/mL | 1 to 10 µg/mL (≈ 1.88 to 18.8 µM) | < 1 µg/mL | < 1 µg/mL | 1 to 10 µg/mL (≈ 1.88 to 18.8 µM) | – | 1 to 10 µg/mL (≈ 1.88 to 18.8 µM) | 1 to 10 µg/mL (≈ 1.88 to 18.8 µM) | < 1 µg/mL | < 1 µg/mL | – | – | 10 to 100 µg/mL (≈ 18.8 to 188 µM)
8 | O=C1COc2ccc(N3C(=O)O[C@H]4C[C@@H](NCCn5c(=O)ccc6ncc(OC(F)F)cc65)CC[C@@H]43)nc2N1 [Compound 98, 1-(2-{[(3aS,6S,7aS)-2-oxo-3-{3-oxo-2H,3H,4H-pyrido[3,2-b][1,4]oxazin-6-yl}-octahydro-1,3-benzoxazol-6-yl]amino}ethyl)-7-(difluoromethoxy)-1,2-dihydro-1,5-naphthyridin-2-one] | < 1 µg/mL | < 1 µg/mL | 1 to 10 µg/mL (≈ 1.84 to 18.4 µM) | < 1 µg/mL | < 1 µg/mL | 1 to 10 µg/mL (≈ 1.84 to 18.4 µM) | < 1 µg/mL | < 1 µg/mL | 1 to 10 µg/mL (≈ 1.84 to 18.4 µM) | < 1 µg/mL | – | 1 fold | 1 fold | > 100 µg/mL
9 | O=C1COc2ccc(N3C(=O)O[C@H]4C[C@@H](NCCn5c(=O)ccc6ccc(OC(F)F)cc65)CC[C@@H]43)nc2N1 [Compound 101, 1-(2-{[(3aS,6S,7aS)-2-oxo-3-{3-oxo-2H,3H,4H-pyrido[3,2-b][1,4]oxazin-6-yl}-octahydro-1,3-benzoxazol-6-yl]amino}ethyl)-7-(difluoromethoxy)-1,2-dihydro quinolin-2-one] | < 1 µg/mL | < 1 µg/mL | 1 to 10 µg/mL (≈ 1.85 to 18.5 µM) | < 1 µg/mL | < 1 µg/mL | < 1 µg/mL | < 1 µg/mL | – | 1 to 10 µg/mL (≈ 1.85 to 18.5 µM) | < 1 µg/mL | < 1 µg/mL | 1 fold | 1 fold | 10 to 100 µg/mL (≈ 18.5 to 185 µM)
10 | N#Cc1cccc(-c2cccc(CN[C@H]3CC[C@H]4[C@H](C3)OC(=O)N4c3ccc4c(n3)NC(=O)CO4)n2)c1 [Compound 105, 3-[6-({[(3aS,6S,7aS)-2-oxo-3-{3-oxo-2H,3H,4H-pyrido[3,2-b][1,4]oxazin-6-yl}-octahydro-1,3-benzoxazol-6-yl]amino}methyl)pyridin-2-yl]benzonitrile] | < 1 µg/mL | < 1 µg/mL | 1 to 10 µg/mL (≈ 2.01 to 20.1 µM) | < 1 µg/mL | < 1 µg/mL | 1 to 10 µg/mL (≈ 2.01 to 20.1 µM) | < 1 µg/mL | < 1 µg/mL | 1 to 10 µg/mL (≈ 2.01 to 20.1 µM) | < 1 µg/mL | – | 1 fold | 1 fold | 10 to 100 µg/mL (≈ 20.1 to 201 µM)
